pIC50: −log10 of the molar value.
Molecular target: human LPAR1 (Homo sapiens, UniProt Q92633)
Test: In vitro functional assay of lysophosphatidic acid receptor 1 activity (calcium flux)
Assay type: cell-based
Settings: B103 cells stably expressing human LPAR1; calcium flux (Fluo-4 NW) after lysophosphatidic acid (18:1) at EC80; 100 pM to 10 μM; read-out: LPAR1 IC50

Chain of human LPAR1 (Q92633 whole entry): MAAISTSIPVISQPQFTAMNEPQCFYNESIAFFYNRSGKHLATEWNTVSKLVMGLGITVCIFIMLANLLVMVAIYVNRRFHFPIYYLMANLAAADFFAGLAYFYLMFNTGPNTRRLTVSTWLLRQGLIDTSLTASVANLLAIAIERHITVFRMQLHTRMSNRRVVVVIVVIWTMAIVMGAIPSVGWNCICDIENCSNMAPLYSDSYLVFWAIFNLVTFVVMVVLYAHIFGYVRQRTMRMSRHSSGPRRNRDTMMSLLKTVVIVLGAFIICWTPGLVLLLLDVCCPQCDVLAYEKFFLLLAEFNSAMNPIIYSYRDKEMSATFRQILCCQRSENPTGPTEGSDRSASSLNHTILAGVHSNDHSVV

SMILES | pIC50
Cc1ccc(NC(=O)N(c2ccccc2C(C)C)C2CC(NS(C)(=O)=O)C2)c(OC(F)F)n1 (centres unmarked) [Example 272, N-(3-(3-(2-(difluoromethoxy)-6-methylpyridin-3-yl)-1-(2-isopropylphenyl)ureido)cyclobutyl)methanesulfonamide] | 7.00 to 8.00
CC(C)(C)c1ccccc1N(C(=O)Nc1ncc(Br)cc1OC(F)F)C1CCC(C(=O)O)CC1 (centres unmarked) [Example 273] | 7.00 to 8.00
COc1ccc(NC(=O)N(c2ccccc2C2CC2)[C@H]2CC[C@@H](C(=O)O)CC2)c(OC(F)F)n1 [Example 274] | 6.00 to 7.00
COc1ccc(NC(=O)N(c2ccccc2C2CC2)[C@H]2CC[C@H](C(=O)O)CC2)c(OC(F)F)n1 [Example 275] | 7.00 to 8.00
COc1ccc(NC(=O)N(c2ccccc2C(C)C)C2CCC(=O)CC2)c(OC(F)F)n1 [Example 276, 3-(2-(difluoromethoxy)-6-methoxypyridin-3-yl)-1-(2-isopropylphenyl)-1-(4-oxocyclohexyl)urea] | 6.00 to 7.00
C#CCCS(=O)(=O)NC(=O)[C@H]1CC[C@H](N(C(=O)Nc2ccc(OC)nc2OC(F)F)c2ccccc2C(C)C)CC1 [Example 280] | > 8.00
COc1ccc(NC(=O)N(c2ccccc2C(C)C)[C@H]2CC[C@H](c3cc(O)no3)CC2)c(OC(F)F)n1 [Example 283, 3-(2-(difluoromethoxy)-6-methoxypyridin-3-yl)-1-((1r,4r)-4-(3-hydroxyisoxazol-5-yl)cyclohexyl)-1-(2-isopropylphenyl)urea] | 7.00 to 8.00
Cc1ccc(NC(=O)N(c2ccccc2C(C)C)[C@H]2CCC[C@@H](C(=O)O)C2)c(OC(F)F)n1 [Example 285] | > 8.00
Cc1ccc(NC(=O)N(c2ccccc2C(C)C)[C@@H]2CCC[C@H](C(=O)O)C2)c(OC(F)F)n1 [Example 287] | 6.00 to 7.00

Other lines, results leading:

pIC50 | SMILES
7.00 to 8.00 | COc1ccc(NC(=O)N(c2ccccc2C(C)(C)F)[C@H]2CC[C@H](C(=O)O)CC2)c(OC(F)F)n1 [Example 278, (1r,4r)-4-(3-(2-(difluoromethoxy)-6-methoxypyridin-3-yl)-1-(2-(2-fluoropropan-2-yl)phenyl)ureido)cyclohexane-1-carboxylic acid]
> 8.00 | COc1ccc(NC(=O)N(c2ccccc2C(C)C)[C@H]2CC[C@H](C(=O)NS(C)(=O)=O)CC2)c(OC(F)F)n1 [Example 279, (1r,4r)-4-(3-(2-(difluoromethoxy)-6-methoxypyridin-3-yl)-1-(2-isopropylphenyl)ureido)-N-(methylsulfonyl)cyclohexane-1-carboxamide]
7.00 to 8.00 | COc1ccc(NC(=O)N(c2ccccc2C(C)C)[C@H]2CC[C@H](C(=O)NO)CC2)c(OC(F)F)n1 [Example 281]
6.00 to 7.00 | COc1ccc(NC(=O)N(c2ccccc2C(C)CO)[C@H]2CC[C@H](C(=O)O)CC2)c(OC(F)F)n1 (stereo partly drawn) [Example 282, (1r,4r)-4-(3-(2-(difluoromethoxy)-6-methoxypyridin-3-yl)-l-(2-(1-hydroxypropan-2-yl)phenyl)ureido)cyclohexane-1-carboxylic acid]
7.00 to 8.00 | COc1ccc(NC(=O)N(c2ccccc2C(C)C)[C@@H]2CCC[C@H](C(=O)O)C2)c(OC(F)F)n1 [Example 286]
7.00 to 8.00 | COc1ccc(NC(=O)N(c2ccccc2C(C)C)[C@H]2CC[C@H](C(=O)O)CC2)c(OC)n1 [Example 288, (1r,4r)-4-(3-(2,6-dimethoxypyridin-3-yl)-1-(2-isopropylphenyl)ureido)cyclohexane-1-carboxylic acid]
> 8.00 | COc1ccc(NC(=O)N(c2ccccc2C(C)C)[C@H]2CC[C@H](C(=O)O)CC2)c(OCC(F)F)n1 [Example 289, (1r,4r)-4-(3-(2-(2,2-difluoroethoxy)-6-methoxypyridin-3-yl)-1-(2-isopropylphenyl)ureido)cyclohexane-1-carboxylic acid]
6.00 to 7.00 | COc1cc(C(F)F)ncc1NC(=O)N(c1ccccc1C(C)C)[C@H]1CC[C@H](C(=O)O)CC1 [Example 294, (1r,4r)-4-(3-(6-(difluoromethyl)-4-methoxypyridin-3-yl)-1-(2-isopropylphenyl)ureido)cyclohexane-1-carboxylic acid]

Source: patent publication US20250034110A1, “LPAR1 ANTAGONISTS AND USES THEREOF” (Pipeline Therapeutics, Inc., priority 2021, published 2025)
